Reference: US9400281B2, “Method of screening of therapeutic agents for K-Ras mutant driven cancers” (PUSAN NATIONAL UNIVERSITY INDUSTRY-UNIVERSITY COOPERATION …, priority 2008, dated 2016)
“And” between values parts separate entries of the source, which are not always exact repeats. Equal values may be shown once. Read-outs that look alike come from different tables or passages of the source.

Legend:
[1] = test system: K-Ras mutant cancer cell lines HCT116; test: Western blot of p53 and p21 expression in K-Ras mutant HCT116 cells; type: cell-based; details: for fold induction at 10 µM: Homo sapiens, HCT-116, HCT116, 10 μM; for Protein expression ratio of compound to control, p21 / Protein expression ratio of compound to control, p53: HCT116, 10 μM, DMSO control = 1.0
Experimental: To confirm whether the compounds prepared according to Examples 1 to 5 are effective for inhibiting SNAIL-p53 binding at cell level, the compound was treated into K-Ras mutant cancer cell lines HCT116 and results were analyzed by western blotting.
Oncogenic K-ras suppresses the p53 activity through SNAIL. In the cell line HCT116, SNAIL is always expressed by K-Ras mutation and bound to p53 to suppress normal activity of p53. If the K-Ras mutant cancer cell line HCT116 is treated with a compound for suppressing SNAIL-p53 binding, p53 is normally activated and more expressed, and target genes of p53 are induced.
First, western blotting was performed to detect expression of p53 and p21, which is a target gene of p53. All cell lines used in the present invention were obtained from ATCC, and maintained in 10% FBS-containing RPMI-1640 or DMEM. Protein was extracted with RIPA buffer solution and a membrane loaded with cell lysate through typical SDS-PAGE and gel transfer method was prepared. After blocking with 5% non-fat dry milk, the membrane was subjected into a typical western blot procedure with an antibody corresponding to each gene. Antibodies used herein were obtained from Cell signaling, SantaCruz. p53 activity was confirmed by expression of p21, which is a target gene of p53.

SNAIL-p53 binding = test: GST pull down assay of SNAIL-p53 binding (Experimental Example 2); parameters: species or system human; details: FIG. 21
Experimental: GST pull down assay is a method for identifying a binding degree of two proteins. GST-fused SNAIL protein and p53 recombinant protein were prepared and treated with the compound 5o or 7a to identify a binding degree of GST-SNAIL protein and p53 protein. […] If MDM2 is over-expressed, proteolysis of p53 is induced to suppress apoptosis occurring through target genes of p53, and an […] of cells is induced. Although MDM2 is a representative control factor of p53, MDM2 is not applied to K-Ras mutant disease or mutant p53 containing disease.
To perform GST pull down assay, three human SNAIL fragments (residues 1-90, 91-112, and 113-264) and p53 fragments (1-93 and 93-292) were expressed in E. coli as GST-fusion protein. Each of the fragments was loaded on to GSH-agarose, washed, and then eluted using a buffer containing 20 mM reduced glutathione. The eluted fractions were purified using an anionexchange chromatography (HitrapQ). The recombinant human p53 protein (residues 94-292) was expressed in E. coli using the vector pET28A which contains a hexa-histidine tag at the C terminus. The p53 protein including the hexa-histidine tag was purified using Ni-NTA affinity and a size exclusion chromatography (Superdex 200). To confirm the direct binding between p53 and SNAIL, agarose-bead conjugated GST or GST-SNAIL was incubated with His-p539 (histidine-p53) in PBS for 45 minutes at 4° C.. After washing with PBS, the precipitated protein was subjected into SDS-PAGE and western blotting.

[2] = test system: HCT116 (K-Ras mutant cancer cell line); test: Cell death rate by tryphan blue cell counting, HCT116; type: cell-based
[3] = test system: MKN45 (K-Ras wild type cancer cell line); test: Cell death rate by tryphan blue cell counting, MKN45; type: cell-based
Text: (§1) To confirm that the p53 induction of the compounds is related to K-Ras, A549 and HCT116, which are K-Ras mutant cancer cell lines, and MKN45, which is K-Ras wild type cancer cell line, were used.

[4] = test system: A549 (K-Ras mutant cancer cell line); test: Cell death rate by tryphan blue cell counting, A549; type: cell-based; details: A549 (A546 [sic])
Text: as §1

MDA-MB 468 = test: Western blot of p21 expression in mutant p53 MDA-MB 468 cells; type: cell-based, human; details: for Expression ratio of gene to control, p21: DMSO control = 1.0
[5] = DMSO control = 1.0, read-out: Protein expression ratio of compound to control, p21
[6] = DMSO control = 1.0, read-out: Protein expression ratio of compound to control, p53

| melting point [°C] | Structure (SMILES) | fold induction at 10 µM [1, 5] | fold induction at 10 µM [1, 6] | other results |
| --- | --- | --- | --- | --- |
| 111 to 112 | CCCCCSC1=CC(=O)c2ccccc2C1=O [Compound 1e, 2-pentylthio-1,4-naphthoquinone] | – | – | – |
| 101 to 102 | CCCCCCSC1=CC(=O)c2ccccc2C1=O [Compound 1f, 2-hexylthio-1,4-naphthoquinone] | – | – | – |
| 114 to 115 | CCCCCCCSC1=CC(=O)c2ccccc2C1=O [Compound 1g, 2-heptylthio-1,4-naphthoquinone] | – | – | – |
| 114 to 115 | CCCCCCCCSC1=CC(=O)c2ccccc2C1=O [Compound 1h, 2-octylthio-1,4-naphthoquinone] | – | – | – |
| 105 to 106 | CCCCCCCCCSC1=CC(=O)c2ccccc2C1=O [Compound 1i, 2-nonylthio-1,4-naphthoquinone] | – | – | – |
| 101 to 102 | CCCCCCCCCCSC1=CC(=O)c2ccccc2C1=O [Compound 1j, 2-decylthio-1,4-naphthoquinone] | – | – | – |
| 172 to 173 | CCNC1=CC(=O)c2c(OC)ccc(OC)c2C1=O [Compound 5b, 2-ethylamino-5,8-dimethoxy-1,4-naphthoquinone] | – | – | – |
| 175 to 176 | CCCNC1=CC(=O)c2c(OC)ccc(OC)c2C1=O [Compound 5c, 2-propylamino-5,8-dimethoxy-1,4-naphthoquinone] | – | – | – |
| 104 to 105 | CCCCNC1=CC(=O)c2c(OC)ccc(OC)c2C1=O [Compound 5d, 2-butylamino-5,8-dimethoxy-1,4-naphthoquinone] | – | – | – |
| 102 to 103 | CCCCCNC1=CC(=O)c2c(OC)ccc(OC)c2C1=O [Compound 5e, 2-pentylamino-5,8-dimethoxy-1,4-naphthoquinone] | – | – | – |
| 83 to 84 | CCCCCCNC1=CC(=O)c2c(OC)ccc(OC)c2C1=O [Compound 5f, 2-hexylamino-5,8-dimethoxy-1,4-naphthoquinone] | – | – | – |
| 74 to 75 | CCCCCCCNC1=CC(=O)c2c(OC)ccc(OC)c2C1=O [Compound 5g, 2-heptylamino-5,8-dimethoxy-1,4-naphthoquinone] | – | – | – |
| 81 to 82 | CCCCCCCCNC1=CC(=O)c2c(OC)ccc(OC)c2C1=O [Compound 5h, 2-octylamino-5,8-dimethoxy-1,4-naphthoquinone] | – | – | – |
| – | CCCCCCCCCNC1=CC(=O)c2c(OC)ccc(OC)c2C1=O [Compound 5i, 2-nonylamino-5,8-dimethoxy-1,4-naphthoquinone] | 4.6 | 1.6 | – |
| – | COc1ccc(OC)c2c1C(=O)C=C(SCCCO)C2=O [Compound 5l, 2-(3-hydroxypropylthio)-5,8-dimethoxy-1,4-naphthoquinone] | 0.1 | 0.6 | – |
| – | COc1ccc(OC)c2c1C(=O)C=C(SCCCCCCO)C2=O [Compound 5n, 2-(6-hydroxyhexylthio)-5,8-dimethoxy-1,4-naphthoquinone] | 0.2 | 1.1 | – |
| – | COc1ccc(OC)c2c1C(=O)C=C(SCCC(=O)N1CCN(c3ccccc3)CC1)C2=O [Compound 6a, 5,8-dimethoxy-2-(3-oxo-3-(4-phenylpiperazin-1-yl)propylthio)naphthalene-1,4-dione] | 2.8 | 1.9 | – |
| – | COc1ccc(OC)c2c1C(=O)C=C(SCCCCCCCCCCC(=O)OCC(C)C)C2=O [Compound 7a, isobutyl-11-(5,8-dimethoxy-1,4-dioxo-1,4-dihydronaphthalene-2-ylthio)undecanoate] | 7.2 | 4.2 | Binding between GST-SNAIL protein and p53 (SNAIL-p53 binding): substantially weak; Cancer cell death rate of compounds with respect to control ([2]; 5 μM): 32 ± 2.1%; Cancer cell death rate of compounds with respect to control ([2]; 20 μM): 57 ± 2.8%; Cancer cell death rate of compounds with respect to control ([3]; 5 μM): 1 ± 1.0%; Cancer cell death rate of compounds with respect to control ([3]; 20 μM): 3 ± 2.4%; Cancer cell death rate of compounds with respect to control ([4]; 5 μM): 23 ± 3.4%; Cancer cell death rate of compounds with respect to control ([4]; 20 μM): 45 ± 2.3% |
| – | COc1ccc(OC)c2c1C(=O)C=C(SCCCCCCCCCCC(=O)NCC(C)C)C2=O [Compound 7b, 11-(5,8-dimethoxy-1,4-dioxo-1,4-dihydronaphthalene-2-ylthio)-N-isobutyl undecanamide] | – | – | Protein expression ratio of compound to control, p21 [1]: 7.0; Protein expression ratio of compound to control, p53 [1]: 4.6 |
| – | COc1ccc(OC)c2c1C(=O)C=C([S+]([O-])CCCCCCCCCCC(=O)OCC(C)C)C2=O (centres unmarked) [Compound 8, isobutyl 11-(5,8-dimethoxyl-1,4-dioxo-1,4-dihydronaphthalene-2-ylsulfinyl) undecanoate] | – | – | Protein expression ratio of compound to control, p21 [1]: 1.7; Protein expression ratio of compound to control, p53 [1]: 2.3 |
| – | COc1ccc(C2=N[C@@H](c3ccc(Cl)cc3)[C@@H](c3ccc(Cl)cc3)N2C(=O)N2CCNC(=O)C2)c(OC(C)C)c1 [Nutlin-3, reference compound] | – | – | Binding between GST-SNAIL protein and p53 (SNAIL-p53 binding): did not inhibit SNAIL-p53 binding; Expression ratio of gene to control, p21 (MDA-MB 468; MDA-MB 468, 10 μM): 0.9; Expression ratio of gene to control, p21 (MDA-MB 468; MDA-MB 468, 20 μM): 1.2; Expression of p21 (target gene of p53) (MDA-MB 468; p53 mutant-type MDA-MB 468, FIG. 23): did not affect p21; Cancer cell death rate of compounds with respect to control ([2]; 5 μM): 21 ± 2.4%; Cancer cell death rate of compounds with respect to control ([2]; 10 μM): 32% and 32 ± 2.9%; Cancer cell death rate of compounds with respect to control ([2]; 20 μM): 40 ± 3.1%; Cancer cell death rate of compounds with respect to control ([3]; 5 μM): 28 ± 2.2%; Cancer cell death rate of compounds with respect to control ([3]; 10 μM): 38% and 38 ± 2.9%; Cancer cell death rate of compounds with respect to control ([3]; 20 μM): 47 ± 2.2%; Cancer cell death rate of compounds with respect to control ([4]; 5 μM): 11 ± 4.0%; Cancer cell death rate of compounds with respect to control ([4]; 10 μM): 19% and 19 ± 4.5%; Cancer cell death rate of compounds with respect to control ([4]; 20 μM): 25 ± 4.7% |

| Structure (SMILES) | melting point [°C] | fold induction at 10 µM [1, 5] | fold induction at 10 µM [1, 6] | other results |
| --- | --- | --- | --- | --- |
| CCCCCCCCCCNC1=CC(=O)c2c(OC)ccc(OC)c2C1=O [Compound 5j, 2-decylamino-5,8-dimethoxy-1,4-naphthoquinone] | 86 to 87 | 5 | 1.3 | – |
| COc1ccc(OC)c2c1C(=O)C=C(SCCO)C2=O [Compound 5k, 2-(2-hydroxyethylthio)-5,8-dimethoxy-1,4-naphthoquinone] | 117 to 118 | 0.2 | 0.3 | – |
| COc1ccc(OC)c2c1C(=O)C=C(SCCCCO)C2=O [Compound 5m, 2-(4-hydroxybutylthio)-5,8-dimethoxy-1,4-naphthoquinone] | 122 to 123 | 0.1 | 0.8 | – |
| COc1ccc(OC)c2c1C(=O)C=C(SCCCCCCCCCCC(=O)O)C2=O [Compound 5p, 11-(5,8-dimethoxy-1,4-dioxo-naphthalen-2-ylthio)undecanoic acid] | 146 to 147 | 0.3 | 1.6 | – |
